Consider 5 compounds from ChEMBL document CHEMBL1909046, “DrugMatrix in vitro pharmacology data”.

The first experiment addresses T1, Alpha-2A adrenergic receptor (Homo sapiens, UniProt P08913).
T1 sequence (P08913 whole entry): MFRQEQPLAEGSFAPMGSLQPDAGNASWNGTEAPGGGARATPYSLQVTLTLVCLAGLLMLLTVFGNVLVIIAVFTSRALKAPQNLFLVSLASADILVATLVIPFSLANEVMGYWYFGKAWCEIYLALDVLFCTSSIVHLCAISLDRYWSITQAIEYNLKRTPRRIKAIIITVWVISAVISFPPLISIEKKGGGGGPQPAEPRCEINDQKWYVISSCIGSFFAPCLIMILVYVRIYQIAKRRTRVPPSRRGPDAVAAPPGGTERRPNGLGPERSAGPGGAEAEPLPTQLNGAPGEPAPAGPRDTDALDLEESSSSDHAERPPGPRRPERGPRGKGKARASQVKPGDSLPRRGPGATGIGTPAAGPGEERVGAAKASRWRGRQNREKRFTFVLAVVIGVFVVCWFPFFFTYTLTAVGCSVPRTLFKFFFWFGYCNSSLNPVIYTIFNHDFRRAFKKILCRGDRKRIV
Type of experiment: cell membranes, Sf9, Membrane. Conditions: sf9.
For the compound `NC1CCN(c2nc3c(cc2F)c(=O)c(C(=O)O)cn3-c2ccc(F)cc2F)C1` (stereo not drawn) [TOSUFLOXACIN], the concentration for half-maximal inhibition (IC50) (usually the concentration needed to halve the response being measured) was “Not Active”.
Take `O=C(Nc1ccc(Br)cc1)c1cc(Br)cc(Br)c1O` [TRIBROMSALAN]: the half-maximal inhibitory concentration (IC50) result is “Not Active”.
On the same count and under the same terms, the value for `CC(c1cc2ccccc2s1)N(O)C(N)=O` (stereo not drawn) [ZILEUTON] was “Not Active”.
Turning to MANGANESE CHLORIDE ANHYDROUS, the IC50 result was “Not Active” and the Ki entry is “Not Active”.
Consider SODIUM ORTHOVANAD, for which the IC50 entry is recorded as “Not Active” and the Ki entry is recorded as “Not Active”.

System in a further experiment: not listed separately
Nature of the experiment: DRUGMATRIX: Glutamate, AMPA radioligand binding (ligand: [3H] AMPA). It counts as cell membranes, Rattus norvegicus, Wistar, Cerebral cortex, Membrane. Conditions: Not Active = under 50% inhibition at 10 µM.
In the case of `NC1CCN(c2nc3c(cc2F)c(=O)c(C(=O)O)cn3-c2ccc(F)cc2F)C1` (stereo not drawn) [TOSUFLOXACIN], the IC50 result is reported as “Not Active” and the Ki result is “Not Active”.
As to `O=C(Nc1ccc(Br)cc1)c1cc(Br)cc(Br)c1O` [TRIBROMSALAN], the IC50 entry is given as “Not Active” and the Ki entry is on record as “Not Active”.
As for `CC(c1cc2ccccc2s1)N(O)C(N)=O` (stereo not drawn) [ZILEUTON], the IC50 result is listed as “Not Active” and the Ki entry is “Not Active”.
For the compound MANGANESE CHLORIDE ANHYDROUS, the IC50 result is on record as “Not Active” and the Ki entry was “Not Active”.
Take SODIUM ORTHOVANAD: the IC50 result is given as “Not Active” and the Ki result was “Not Active”.

System in a further experiment: not listed separately
Kind of experiment: DRUGMATRIX: Imidazoline I2, Central radioligand binding (ligand: [3H] Idazoxan). It counts as cell membranes, Rattus norvegicus, Wistar, Cerebral cortex, Membrane. Conditions: Not Active = under 50% inhibition at 10 µM.
With `NC1CCN(c2nc3c(cc2F)c(=O)c(C(=O)O)cn3-c2ccc(F)cc2F)C1` (stereo not drawn) [TOSUFLOXACIN], the IC50 result was “Not Active” and the Ki entry is recorded as “Not Active”.
As to `O=C(Nc1ccc(Br)cc1)c1cc(Br)cc(Br)c1O` [TRIBROMSALAN], the half-inhibitory concentration (IC50) entry is given as “Not Active” and the Ki entry is “Not Active”.
Regarding `CC(c1cc2ccccc2s1)N(O)C(N)=O` (stereo not drawn) [ZILEUTON], the IC50 entry is “Not Active” and the Ki entry was “Not Active”.
Consider MANGANESE CHLORIDE ANHYDROUS, for which the IC50 entry was “Not Active” and the Ki result is “Not Active”.
SODIUM ORTHOVANAD: the IC50 entry was “Not Active” and the Ki entry is recorded as “Not Active”.

System in another experiment: not listed separately
Kind of experiment: DRUGMATRIX: Nicotinic Acetylcholine radioligand binding (ligand: [125I] Epibatidine). It counts as cell membranes, Membrane. The note with it: imr-32; Not Active = under 50% inhibition at 10 µM.
Turning to `NC1CCN(c2nc3c(cc2F)c(=O)c(C(=O)O)cn3-c2ccc(F)cc2F)C1` (stereo not drawn) [TOSUFLOXACIN], the IC50 result was “Not Active” and the Ki result is recorded as “Not Active”.
Regarding `O=C(Nc1ccc(Br)cc1)c1cc(Br)cc(Br)c1O` [TRIBROMSALAN], the IC50 entry is listed as “Not Active” and the Ki entry is reported as “Not Active”.
Turning to `CC(c1cc2ccccc2s1)N(O)C(N)=O` (stereo not drawn) [ZILEUTON], the half-inhibitory concentration (IC50) entry was “Not Active” and the Ki entry is “Not Active”.
MANGANESE CHLORIDE ANHYDROUS: the IC50 result is recorded as “Not Active” and the Ki entry is “Not Active”.
As for SODIUM ORTHOVANAD, the concentration for half-maximal inhibition (IC50) result is reported as “Not Active” and the Ki entry is reported as “Not Active”.

For a further experiment, the target named is Mitogen-activated protein kinase 3 (Homo sapiens, UniProt P27361). Nature of the experiment: DRUGMATRIX: Protein Serine/Threonine Kinase, ERK1 enzyme inhibition (substrate: Myelin Basic Protein). The note with it: Not Active = under 50% inhibition at 10 µM. More on the design: species or system Escherichia coli.
Mitogen-activated protein kinase 3, sequence (P27361 whole entry): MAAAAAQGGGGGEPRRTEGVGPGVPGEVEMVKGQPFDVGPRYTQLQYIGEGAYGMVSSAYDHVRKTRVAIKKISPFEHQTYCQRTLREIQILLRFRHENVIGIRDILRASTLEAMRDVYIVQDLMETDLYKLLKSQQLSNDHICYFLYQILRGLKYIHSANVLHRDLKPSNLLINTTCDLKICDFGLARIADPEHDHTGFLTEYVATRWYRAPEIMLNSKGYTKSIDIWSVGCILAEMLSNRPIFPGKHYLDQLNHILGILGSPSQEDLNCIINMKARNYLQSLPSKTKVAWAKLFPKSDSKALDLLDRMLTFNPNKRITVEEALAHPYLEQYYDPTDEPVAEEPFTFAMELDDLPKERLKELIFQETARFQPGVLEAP
On to `NC1CCN(c2nc3c(cc2F)c(=O)c(C(=O)O)cn3-c2ccc(F)cc2F)C1` (stereo not drawn) [TOSUFLOXACIN], for which the IC50 entry was “Not Active”.
On to `O=C(Nc1ccc(Br)cc1)c1cc(Br)cc(Br)c1O` [TRIBROMSALAN], for which the concentration for half-maximal inhibition (IC50) entry was “Not Active”.
Same read-out and setting: with `CC(c1cc2ccccc2s1)N(O)C(N)=O` (stereo not drawn) [ZILEUTON] the entry was “Not Active”.
As for MANGANESE CHLORIDE ANHYDROUS, the IC50 entry is given as “Not Active” and the Ki entry is “Not Active”.
On to SODIUM ORTHOVANAD, for which the half-maximal inhibitory concentration (IC50) result was “Not Active” and the Ki entry is on record as “Not Active”.

For a further experiment, the target named is Epidermal growth factor receptor (Homo sapiens, UniProt P00533). Nature of the experiment: DRUGMATRIX: Protein Tyrosine Kinase, EGF Receptor enzyme inhibition (substrate: Poly(Glu:Tyr)). It counts as cell-based, Insect cells. The note with it: Not Active = under 50% inhibition at 10 µM; read-out: IC50.
For the compound `O=C(Nc1ccc(Br)cc1)c1cc(Br)cc(Br)c1O` [TRIBROMSALAN], the IC50 is 2990 nM.

The same experiment, now with this note: insect cells; Not Active = under 50% inhibition at 10 µM.
Turning to `NC1CCN(c2nc3c(cc2F)c(=O)c(C(=O)O)cn3-c2ccc(F)cc2F)C1` (stereo not drawn) [TOSUFLOXACIN], the IC50 result is recorded as “Not Active”.
`CC(c1cc2ccccc2s1)N(O)C(N)=O` (stereo not drawn) [ZILEUTON]: the half-maximal inhibitory concentration (IC50) result is “Not Active”.
With MANGANESE CHLORIDE ANHYDROUS, the half-maximal inhibitory concentration (IC50) result is “Not Active” and the Ki result was “Not Active”.
Regarding SODIUM ORTHOVANAD, the concentration for half-maximal inhibition (IC50) result is given as “Not Active” and the Ki entry is “Not Active”.

The target of the next experiment is T2, Adenosine receptor A1 (Homo sapiens, UniProt P30542).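 Also: radioligand binding assay at the adenosine A1 receptor, with DPCPX serving as the labelled ligand; in other assays of this panel Not Active means under 50% inhibition at 10 µM.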
T2 sequence (P30542 whole entry): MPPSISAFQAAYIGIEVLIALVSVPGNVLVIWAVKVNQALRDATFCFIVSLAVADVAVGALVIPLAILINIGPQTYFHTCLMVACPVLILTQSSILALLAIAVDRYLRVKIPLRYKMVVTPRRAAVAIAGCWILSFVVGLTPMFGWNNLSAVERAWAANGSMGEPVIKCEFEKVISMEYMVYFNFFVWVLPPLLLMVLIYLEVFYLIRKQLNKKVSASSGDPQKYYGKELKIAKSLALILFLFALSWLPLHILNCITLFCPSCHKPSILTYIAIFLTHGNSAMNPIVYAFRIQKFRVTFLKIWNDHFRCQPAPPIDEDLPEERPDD
It counts as cell membranes, CHO, Membrane. Conditions: cho.
In the case of `NC1CCN(c2nc3c(cc2F)c(=O)c(C(=O)O)cn3-c2ccc(F)cc2F)C1` (stereo not drawn) [TOSUFLOXACIN], the concentration for half-maximal inhibition (IC50) entry is given as “Not Active”.
With `O=C(Nc1ccc(Br)cc1)c1cc(Br)cc(Br)c1O` [TRIBROMSALAN], the IC50 entry was “Not Active”.
Same read-out and setting: the value for `CC(c1cc2ccccc2s1)N(O)C(N)=O` (stereo not drawn) [ZILEUTON] was “Not Active”.
Take MANGANESE CHLORIDE ANHYDROUS: the IC50 result is reported as “Not Active” and the Ki entry is “Not Active”.
Take SODIUM ORTHOVANAD: the IC50 result was “Not Active” and the Ki entry is “Not Active”.
